PubChem BioAssay AID2060614 (Molecular Pharmacology Branch, DTP, NCI, 2025)

Test system: 598228-144-R-J1-PDC complex spheroids, viability
Assay: Anticancer human tumor 598228-144-R-J1-PDC patient-derived serous endometrial adenocarcinoma cell line growth inhibition [CLK]
Conditions: for IC50: curve of first compound; for viability, T/C: stronger effect = lower value
From the text: A high-throughput screen of multi-cell type tumor spheroids was designed to identify active combinations of […] and targeted small molecules. Complex spheroids include a stromal component modeled by human endothelial cells (HUVEC) and fibroblasts modeled by human mesenchymal stem cells (MSCs). The concentration ranges selected for each drug and investigational agent were based upon clinically achievable concentrations if the clinical Cmax of the agent was known.
Compounds. The drugs and investigational agents: cirtuvivint (SM08502; NSC835563), CC-671 (NSC850746), vemurafenib (NSC761431), tapotoclax (NSC804041), sotorasib (NSC818433), adagrasib (NSC831453), MRTX-1133 (NSC836407), BAY2416964 (NSC825713), copanlisib (NSC816437), inavolisib (NSC800729), abemaciclib (NSC768073), osimertinib (NSC779217), entinostat (NSC756642), eltanexor (KPT-8602, NSC794443), venetoclax (NSC766270), ceralasertib (NSC777638), bortezomib (NSC756655), olaparib (NSC753686), talazoparib (NSC767125), alisertib (NSC759677), peposertib (NSC802822), gemcitabine (NSC613327), 5-fluorouracil (NSC19893), SN-38 (NSC673596), oxaliplatin (NSC266046), paclitaxel (NSC125973), and doxorubicin (NSC123127), were obtained from the National Cancer Institute (NCI) Developmental Therapeutics Program Chemical Repository. The FDA-approved anticancer drug set is available from the Developmental Therapeutics Program at https://dtp.cancer.gov/organization/dscb/obtaining/available plates.htm. […] The stock solutions were prepared in dimethyl sulfoxide (DMSO, Sigma-Aldrich, St. Louis, MO, cat. D2650), except for the platinum complexes which were prepared in saline (Quality Biological, Gaithersburg, MD, cat. 114-055-101), at 800-fold the tested concentration and stored at -70 degrees C prior to their use. All drugs and investigational agents were tested over a range starting from a high concentration at or near the clinical Cmax and decreasing in half-log increments. If the clinical Cmax for an agent had not been determined, the highest concentration tested was 10 microM.
Cell Culture. All cells were maintained in an incubator at 37 degrees C and 5% CO2 with 95% humidity. The PDC lines were cultured according to standard operating procedures established by the NCI PDMR. Briefly, all PDCs were thawed and cultured in Matrigel-coated flasks prepared with a working solution of 1X Ham's F-12 nutrient mix, without supplementation (Invitrogen, Waltham, MA, cat. 11765054), 100 U/mL penicillin-streptomycin (Invitrogen, cat. 15140122), and 2.5% Matrigel (Corning Inc., Corning, NY, cat. 354248) for the first three passages. The 947758-054-R-J2-PDC line was cultured in 6B/Colon 1A media, which includes advanced DMEM/F-12 (Thermo Fisher Scientific, cat. 12634028), 10 mM HEPES (Thermo Fisher Scientific, cat. 15630080), 1X GlutaMAX supplement (Thermo Fisher Scientific, cat. 35050061), 0.1 mg/mL primocin (InvivoGen, cat. ant-pm-2), 10% defined fetal bovine serum, heat inactivated (HyClone Laboratories Inc., cat. SH30070.03HI), 1.25 mM N-Acetyl-L-cysteine (Sigma-Aldrich, cat. A9165), 10 mM nicotinamide (Sigma-Aldrich, cat. N0636), 1X B-27 supplement (Thermo Fisher Scientific, cat. 17504044), 1X N-2 supplement (Thermo Fisher Scientific, cat. 17502048), and 10 microM Y-27632 dihydrochloride (Tocris Bioscience, cat. 1254). The 876862-298-R-J1-PDC was cultured in 6E media, which includes all 6B/Colon 1A media components plus 50% L-WRN conditioned media (ATCC, cat. CRL-3276), 50 ng/mL recombinant human EGF recombinant protein (hEGF; Thermo Fisher Scientific, cat. PHG0311), 10 ng/mL recombinant human fibroblast growth factor 10 (hGFG-10; PeproTech, cat. 100-26), 1 ng/mL recombinant human fibroblast growth factor 2 (hFGF-2; PeproTech, cat. 100-18B), and 1 µM prostaglandin E2 (PGE2; Tocris, cat. 2296). The 227483-062-R1-J1-PDC line was cultured in Panc media, containing all 6E components except hFGF-2, with the addition of 500 nM SB-431542 (Selleckchem, cat. S1067) and 10 nM gastrin (Tocris, cat. 3006). […]

[1] = second compound 0.0316 µM, first compound 0.0316 µM
[2] = second compound 0.0316 µM, first compound 0.1 µM
[3] = second compound 0.0316 µM, first compound 0.316 µM
[4] = second compound 0.0316 µM, first compound 1 µM
[5] = second compound 0.0316 µM, first compound 3.16 µM
[6] = second compound 0.0316 µM, first compound 10 µM
[7] = second compound 0.1 µM, first compound 0.0316 µM
[8] = second compound 0.1 µM, first compound 0.1 µM
[9] = second compound 0.1 µM, first compound 0.316 µM
[10] = second compound 0.1 µM, first compound 1 µM
[11] = second compound 0.1 µM, first compound 3.16 µM
[12] = second compound 0.1 µM, first compound 10 µM
[13] = second compound 0.316 µM, first compound 0.0316 µM
[14] = second compound 0.316 µM, first compound 0.1 µM
[15] = second compound 0.316 µM, first compound 0.316 µM
[16] = second compound 0.316 µM, first compound 1 µM
[17] = second compound 0.316 µM, first compound 3.16 µM
[18] = second compound 0.316 µM, first compound 10 µM
[19] = second compound 1 µM, first compound 0.0316 µM
[20] = second compound 1 µM, first compound 0.1 µM
[21] = second compound 1 µM, first compound 0.316 µM
[22] = second compound 1 µM, first compound 1 µM
[23] = second compound 1 µM, first compound 3.16 µM
[24] = second compound 1 µM, first compound 10 µM
[25] = second compound 3.16 µM, first compound 0.0316 µM
[26] = second compound 3.16 µM, first compound 0.1 µM
[27] = second compound 3.16 µM, first compound 0.316 µM
[28] = second compound 3.16 µM, first compound 1 µM
[29] = second compound 3.16 µM, first compound 3.16 µM
[30] = second compound 3.16 µM, first compound 10 µM
[31] = second compound 10 µM, first compound 0.0316 µM
[32] = second compound 10 µM, first compound 0.1 µM
[33] = second compound 10 µM, first compound 0.316 µM
[34] = second compound 10 µM, first compound 1 µM
[35] = second compound 10 µM, first compound 3.16 µM
[36] = second compound 10 µM, first compound 10 µM
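Also: spheroids exposed to compounds for seven days before readout.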
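For viability, T/C in this document: 100% = DMSO vehicle control wells.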

C#Cc1c(F)ccc2cc(O)cc(-c3ncc4c(N5CC6CCC(C5)N6)nc(OCC56CCCN5CC(F)C6)nc4c3F)c12 (centres undefined) + CNC(=O)c1ccc(Nc2nc(OC3CCCC3)c3c(-c4ccc5nc(C)oc5c4)c[nH]c3n2)c(OC)c1 showed an IC50 (second compound 0.0316 µM) of over 10 µM, an IC50 (second compound 0.1 µM) of over 10 µM and an IC50 (second compound 0.316 µM) of over 10 µM. For the same molecule, the IC50 (second compound 1 µM) was over 10 µM, the IC50 (second compound 3.16 µM) was over 10 µM and the IC50 (second compound 10 µM) was over 10 µM. The viability, T/C [1] was 111%, the viability, T/C [2] was 112% and the viability, T/C [3] was 117%. The viability, T/C [4] was 125%, the viability, T/C [5] was 99.5% and the viability, T/C [6] was 94.1%. The viability, T/C [7] was 99.7%, the viability, T/C [8] was 104% and the viability, T/C [9] was 109%. The viability, T/C [10] was 102%, the viability, T/C [11] was 98.1% and the viability, T/C [12] was 88.3%. The viability, T/C [13] was 120%, the viability, T/C [14] was 102% and the viability, T/C [15] was 132%. For the same molecule, the viability, T/C [16] was 100%, the viability, T/C [17] was 110% and the viability, T/C [18] was 90.7%. The viability, T/C [19] was 101%, the viability, T/C [20] was 90.3% and the viability, T/C [21] was 98.3%. The viability, T/C [22] was 98.2%, the viability, T/C [23] was 104% and the viability, T/C [24] was 83.3%. The viability, T/C [25] was 98.5%, the viability, T/C [26] was 92.5% and the viability, T/C [27] was 81.8%. For the same molecule, the viability, T/C [28] was 83.6%, the viability, T/C [29] was 95.2% and the viability, T/C [30] was 88.5%. It also gave a viability, T/C [31] of 83.3%, a viability, T/C [32] of 80.7% and a viability, T/C [33] of 90.8%. It also gave a viability, T/C [34] of 81.9%, a viability, T/C [35] of 102% and a viability, T/C [36] of 78.8%.

CC(Nc1ccc2c(c1)OCCn1cc(N3C(=O)OCC3C(F)F)nc1-2)C(N)=O (centres undefined) + CNC(=O)c1ccc(Nc2nc(OC3CCCC3)c3c(-c4ccc5nc(C)oc5c4)c[nH]c3n2)c(OC)c1 showed an IC50 (second compound 0.0316 µM) of 0.309 µM, an IC50 (second compound 0.1 µM) of 0.31 µM and an IC50 (second compound 0.316 µM) of 0.248 µM. For the same molecule, the IC50 (second compound 1 µM) was 0.159 µM, the IC50 (second compound 3.16 µM) was 0.145 µM and the IC50 (second compound 10 µM) was 0.1 µM. It also gave a viability, T/C [1] of 91.9%, a viability, T/C [2] of 62.8% and a viability, T/C [3] of 53.1%. For the same molecule, the viability, T/C [4] was 38.2%, the viability, T/C [5] was 31.5% and the viability, T/C [6] was 25.8%. For the same molecule, the viability, T/C [7] was 88.2%, the viability, T/C [8] was 70.3% and the viability, T/C [9] was 47%. It also gave a viability, T/C [10] of 35.5%, a viability, T/C [11] of 35.5% and a viability, T/C [12] of 22.1%. The viability, T/C [13] was 77.5%, the viability, T/C [14] was 58.5% and the viability, T/C [15] was 51.6%. For the same molecule, the viability, T/C [16] was 32.2%, the viability, T/C [17] was 26.2% and the viability, T/C [18] was 22.9%. It also gave a viability, T/C [19] of 75.2%, a viability, T/C [20] of 56.4% and a viability, T/C [21] of 37.4%. It also gave a viability, T/C [22] of 32.4%, a viability, T/C [23] of 23.1% and a viability, T/C [24] of 12.8%. The viability, T/C [25] was 69.7%, the viability, T/C [26] was 58.4% and the viability, T/C [27] was 33.8%. It also gave a viability, T/C [28] of 26.4%, a viability, T/C [29] of 21.2% and a viability, T/C [30] of 13.7%. It also gave a viability, T/C [31] of 70.3%, a viability, T/C [32] of 50.6% and a viability, T/C [33] of 33.1%. The viability, T/C [34] was 22.9%, the viability, T/C [35] was 18.8% and the viability, T/C [36] was 12.6%.
